Patent US10894036B2, “Use of marizomib for the treatment of central nervous system (CNS) cancers” (Celgene International II Sàrl, priority 2016, dated 2021)

Assay: Phase 1/2 MRZ + BEV and MRZ monotherapy in recurrent G4 MG: adverse events, DLT
Details: for Ataxia: Treatment Related Grade ≥3 AE, # patients / Confusional State: Treatment Related Grade ≥3 AE, # patients / Delusion: Treatment Related Grade ≥3 AE, # patients / Dyspnea: Treatment Related Grade ≥3 AE, # patients / Embolism: Treatment Related Grade ≥3 AE, # patients / Fall: Treatment Related Grade ≥3 AE, # patients / Fatigue: Treatment Related Grade ≥3 AE, # patients / Hallucination: Treatment Related Grade ≥3 AE, # patients / Headache: Treatment Related Grade ≥3 AE, # patients / Hypertension: Treatment Related Grade ≥3 AE, # patients / Hyponatremia: Treatment Related Grade ≥3 AE, # patients / Insomnia: Treatment Related Grade ≥3 AE, # patients / Intracranial Hemorrhage: Treatment Related Grade ≥3 AE, # patients / Optic Nerve Disorder: Treatment Related Grade ≥3 AE, # patients / Proteinuria: Treatment Related Grade ≥3 AE, # patients: attributed to labelled agent
[1] = MRZ 0.7 mg/m^2 + BEV, Cohort 2, N = 3
[2] = MRZ 0.7 mg/m^2 Cohort 2 (N = 3)
[3] = MRZ 0.8 mg/m^2 + BEV N = 27, MRZ 0.8 mg/m^2 monotherapy N = 30
[4] = MRZ 0.8 mg/m^2 + BEV, Cohorts 3 & 4, N = 27
[5] = MRZ 0.8 mg/m^2 + BEV, N = 27, related to the labelled drug
[6] = MRZ 0.8 mg/m^2 Cohorts 3 & 4 (N = 27)
[7] = MRZ 0.8 mg/m^2 monotherapy, N = 30

Description: The clinical trial was a Phase 1, dose-escalation (3+3 design) followed by dose-expansion at recommended Phase 2 Dose (RP2D).
The drugs were infused on 28-Day Cycles. Tumor response is assessed every other cycle by RANO criteria.
The safety data will be presented in individual listings and summary tables, including frequency tables for adverse events and frequency and shift tables for laboratory variables. The safety population will be all subjects who received at least one dose of either study drug in Phase 1 or MRZ in Phase 2.

With `C[C@@]12OC(=O)[C@]1([C@@H](O)[C@@H]1C=CCCC1)NC(=O)[C@@H]2CCCl` [marizomib] the “Confusional State, Treatment Related Grade ≥3 AE, patients” value [1] was 0, the “Delusion, Treatment Related Grade ≥3 AE, patients” value [1] was 0 and the “Dyspnea, Treatment Related Grade ≥3 AE, patients” value [1] was 0. For the same molecule, the “Embolism, Treatment Related Grade ≥3 AE, patients” value [1] was 0, the “Fall, Treatment Related Grade ≥3 AE, patients” value [1] was 0 and the “Fatigue, Treatment Related Grade ≥3 AE, patients” value [1] was 0. The “Hallucination, Treatment Related Grade ≥3 AE, patients” value [1] was 0, the “Headache, Treatment Related Grade ≥3 AE, patients” value [1] was 0 and the “Hypertension, Treatment Related Grade ≥3 AE, patients” value [1] was 0. For the same molecule, the “Hyponatremia, Treatment Related Grade ≥3 AE, patients” value [1] was 0, the “Insomnia, Treatment Related Grade ≥3 AE, patients” value [1] was 0 and the “Intracranial Hemorrhage, Treatment Related Grade ≥3 AE, patients” value [1] was 0. For the same molecule, the “Optic Nerve Disorder, Treatment Related Grade ≥3 AE, patients” value [1] was 0, the “Proteinuria, Treatment Related Grade ≥3 AE, patients” value [1] was 0 and the “Ataxia, Treatment Related Grade ≥3 AE, patients” value (MRZ 0.7 mg/m^2 + BEV, Cohort 2, N = 3, related to the labelled drug) was 0. For the same molecule, the “Ataxia: Treatment Related Grade ≥3 AE, # patients” value [2] was 0, the “Confusional State: Treatment Related Grade ≥3 AE, # patients” value [2] was 0 and the “Delusion: Treatment Related Grade ≥3 AE, # patients” value [2] was 0. The “Dyspnea: Treatment Related Grade ≥3 AE, # patients” value [2] was 0, the “Embolism: Treatment Related Grade ≥3 AE, # patients” value [2] was 0 and the “Fall: Treatment Related Grade ≥3 AE, # patients” value [2] was 0. The “Fatigue: Treatment Related Grade ≥3 AE, # patients” value [2] was 0, the “Hallucination: Treatment Related Grade ≥3 AE, # patients” value [2] was 0 and the “Headache: Treatment Related Grade ≥3 AE, # patients” value [2] was 0. For the same molecule, the “Hypertension: Treatment Related Grade ≥3 AE, # patients” value [2] was 0, the “Hyponatremia: Treatment Related Grade ≥3 AE, # patients” value [2] was 0 and the “Insomnia: Treatment Related Grade ≥3 AE, # patients” value [2] was 0. For the same molecule, the “Intracranial Hemorrhage: Treatment Related Grade ≥3 AE, # patients” value [2] was 0, the “Optic Nerve Disorder: Treatment Related Grade ≥3 AE, # patients” value [2] was 0 and the “Proteinuria: Treatment Related Grade ≥3 AE, # patients” value [2] was 0. The “Fatigue, treatment-related AE, patients” value (MRZ 0.8 mg/m^2 + BEV Cohorts 3 & 4, N = 27, related to the labelled drug (MRZ + BEV = related to both)) was 19 (70.4%), the “Patients with at Least One TEAE” value (MRZ 0.8 mg/m^2 + BEV Cohorts 3 & 4 N = 27, MRZ 0.8 mg/m^2 monotherapy N = 30) was 29 (96.7%) ^[1] and the “Anaemia, adverse event, patients” value [3] was 6 (20.0%). The “Ataxia, adverse event, patients” value [3] was 6 (20.0%), the “Confusional state, adverse event, patients” value [3] was 7 (23.3%) and the “Constipation, adverse event, patients” value [3] was 9 (30.0%). For the same molecule, the “Diarrhoea, adverse event, patients” value [3] was 7 (23.3%), the “Dizziness, adverse event, patients” value [3] was 5 (16.7%) and the “Dysarthria, adverse event, patients” value [3] was 5 (16.7%). For the same molecule, the “Dysphonia, adverse event, patients” value [3] was 1 (3.3%), the “Epistaxis, adverse event, patients” value [3] was 2 (6.7%) and the “Fall, adverse event, patients” value [3] was 4 (13.3%). For the same molecule, the “Fatigue, adverse event, patients” value [3] was 19 (63.3%), the “Hallucination, adverse event, patients” value [3] was 12 (40.0%) and the “Headache, adverse event, patients” value [3] was 12 (40.0%). The “Hyperglycaemia, adverse event, patients” value [3] was 8 (27.6%), the “Hypertension, adverse event, patients” value [3] was 4 (13.3%) and the “Hypokalemia, adverse event, patients” value [3] was 8 (27.6%). For the same molecule, the “Infusion site pain, adverse event, patients” value [3] was 3 (10.0%), the “Insomnia, adverse event, patients” value [3] was 14 (46.7%) and the “Nausea, adverse event, patients” value [3] was 11 (36.7%). The “Platelet count decreased, adverse event, patients” value [3] was 7 (23.3%), the “Vomiting, adverse event, patients” value [3] was 9 (30.0%) and the “Confusional State, Treatment Related Grade ≥3 AE, patients” value [4] was 0. For the same molecule, the “Delusion, Treatment Related Grade ≥3 AE, patients” value [4] was 1, the “Dyspnea, Treatment Related Grade ≥3 AE, patients” value [4] was 1 and the “Embolism, Treatment Related Grade ≥3 AE, patients” value [4] was 0. For the same molecule, the “Fall, Treatment Related Grade ≥3 AE, patients” value [4] was 1, the “Fatigue, Treatment Related Grade ≥3 AE, patients” value [4] was 1 and the “Hallucination, Treatment Related Grade ≥3 AE, patients” value [4] was 1. For the same molecule, the “Headache, Treatment Related Grade ≥3 AE, patients” value [4] was 3, the “Hypertension, Treatment Related Grade ≥3 AE, patients” value [4] was 0 and the “Hyponatremia, Treatment Related Grade ≥3 AE, patients” value [4] was 1. The “Insomnia, Treatment Related Grade ≥3 AE, patients” value [4] was 1, the “Intracranial Hemorrhage, Treatment Related Grade ≥3 AE, patients” value [4] was 0 and the “Optic Nerve Disorder, Treatment Related Grade ≥3 AE, patients” value [4] was 0. The “Proteinuria, Treatment Related Grade ≥3 AE, patients” value [4] was 0, the “Ataxia, Treatment Related Grade ≥3 AE, patients” value (MRZ 0.8 mg/m^2 + BEV, Cohorts 3 & 4, N = 27, related to the labelled drug) was 1 and the “Anaemia, treatment-related AE, patients” value [5] was 5 (18.5%). The “Ataxia, treatment-related AE, patients” value [5] was 7 (25.9%), the “Confusional state, treatment-related AE, patients” value [5] was 7 (25.9%) and the “Constipation, treatment-related AE, patients” value [5] was 5 (18.5%). The “Diarrhoea, treatment-related AE, patients” value [5] was 8 (29.6%), the “Dizziness, treatment-related AE, patients” value [5] was 8 (29.6%) and the “Dysphonia, treatment-related AE, patients” value [5] was 1 (3.7%). For the same molecule, the “Epistaxis, treatment-related AE, patients” value [5] was 0 (0.0%), the “Fall, treatment-related AE, patients” value [5] was 3 (11.1%) and the “Hallucination, treatment-related AE, patients” value [5] was 12 (44.4%). The “Headache, treatment-related AE, patients” value [5] was 12 (44.4%), the “Hypertension, treatment-related AE, patients” value [5] was 1 (3.7%) and the “Infusion site pain, treatment-related AE, patients” value [5] was 4 (14.8%). For the same molecule, the “Muscular weakness, treatment-related AE, patients” value [5] was 3 (11.1%), the “Nausea, treatment-related AE, patients” value [5] was 17 (63.0%) and the “Platelet count decreased, treatment-related AE, patients” value [5] was 2 (7.4%). For the same molecule, the “Stomatitis, treatment-related AE, patients” value [5] was 3 (11.1%), the “Upper-airway cough syndrome, treatment-related AE, patients” value [5] was 0 (0.0%) and the “Vomiting, treatment-related AE, patients” value [5] was 15 (55.6%). For the same molecule, the “Ataxia: Treatment Related Grade ≥3 AE, # patients” value [6] was 1, the “Confusional State: Treatment Related Grade ≥3 AE, # patients” value [6] was 0 and the “Delusion: Treatment Related Grade ≥3 AE, # patients” value [6] was 1. The “Dyspnea: Treatment Related Grade ≥3 AE, # patients” value [6] was 1, the “Embolism: Treatment Related Grade ≥3 AE, # patients” value [6] was 0 and the “Fall: Treatment Related Grade ≥3 AE, # patients” value [6] was 1. For the same molecule, the “Fatigue: Treatment Related Grade ≥3 AE, # patients” value [6] was 1, the “Hallucination: Treatment Related Grade ≥3 AE, # patients” value [6] was 1 and the “Headache: Treatment Related Grade ≥3 AE, # patients” value [6] was 3. For the same molecule, the “Hypertension: Treatment Related Grade ≥3 AE, # patients” value [6] was 0, the “Hyponatremia: Treatment Related Grade ≥3 AE, # patients” value [6] was 1 and the “Insomnia: Treatment Related Grade ≥3 AE, # patients” value [6] was 1. For the same molecule, the “Intracranial Hemorrhage: Treatment Related Grade ≥3 AE, # patients” value [6] was 0, the “Optic Nerve Disorder: Treatment Related Grade ≥3 AE, # patients” value [6] was 0 and the “Proteinuria: Treatment Related Grade ≥3 AE, # patients” value [6] was 0. The “Anaemia, MRZ related AE, patients” value [7] was 5 (16.7%, the “Ataxia, MRZ related AE, patients” value [7] was 5 (16.7%) and the “Confusional state, MRZ related AE, patients” value [7] was 6 (20.0%). For the same molecule, the “Constipation, MRZ related AE, patients” value [7] was 6 (20.0%), the “Diarrhoea, MRZ related AE, patients” value [7] was 7 (23.3) and the “Dizziness, MRZ related AE, patients” value [7] was 3 (10.0%). For the same molecule, the “Dysphonia, MRZ related AE, patients” value [7] was 0, the “Epistaxis, MRZ related AE, patients” value [7] was 1 (3.3%) and the “Fall, MRZ related AE, patients” value [7] was 1 (3.3%). For the same molecule, the “Fatigue, MRZ related AE, patients” value [7] was 18 (60.0%), the “Hallucination, MRZ related AE, patients” value [7] was 11 (36.7%) and the “Headache, MRZ related AE, patients” value [7] was 11 (36.7%). For the same molecule, the “Infusion site pain, MRZ related AE, patients” value [7] was 2 (6.7%), the “Muscular weakness, MRZ related AE, patients” value [7] was 0 and the “Nausea, MRZ related AE, patients” value [7] was 9 (30.0%). The “Platelet count decreased, MRZ related AE, patients” value [7] was 0, the “Stomatitis, MRZ related AE, patients” value [7] was 0 and the “Upper-airway cough syndrome, MRZ related AE, patients” value [7] was 0. For the same molecule, the “Vomiting, MRZ related AE, patients” value [7] was 7 (23.3).
